Experiment [1] concerns the target T1, pFA-PPARα-LBD in BHK21 cells (Homo sapiens, UniProt Q07869).
T1 construct: PPARα (aa 167 to 469); expressed in transfected cells; host or cells: BHK21 (ATCC CCL10)
T1 sequence (Q07869 167-468 limits assumed): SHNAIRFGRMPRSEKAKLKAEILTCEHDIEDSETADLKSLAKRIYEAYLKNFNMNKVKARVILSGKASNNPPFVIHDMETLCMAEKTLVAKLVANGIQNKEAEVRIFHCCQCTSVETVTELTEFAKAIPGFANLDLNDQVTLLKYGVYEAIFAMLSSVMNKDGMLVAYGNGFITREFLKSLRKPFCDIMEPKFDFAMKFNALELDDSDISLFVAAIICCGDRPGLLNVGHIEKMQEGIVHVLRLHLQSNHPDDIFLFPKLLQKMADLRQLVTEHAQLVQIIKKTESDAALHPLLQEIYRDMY
Nature of the experiment: Luciferase transcriptional reporter gene assay (transactivation), PPARα. It counts as cell-based. To be noted: for pEC50: 24 hours with compound; for PPARα maximal activation (% of reference compound): reference PPARα compound set to 100%. From the text: (§1) Full-length cDNA clones for humans PPARδ and PPARα and mouse PPARγ were obtained by RT-PCR from human adipose and mouse liver cRNA, respectively, cloned into plasmid vectors and verified by DNA sequencing. Bacterial and mammalian expression vectors were constructed to produce glutathione-s-transferase (GST) and Gal4 DNA binding domain proteins fused to the ligand binding domains (LBD) of PPARδ (aa 139 to 442), PPARγ (aa 174 to 476) and PPARα (aa 167 to 469). To accomplish this, the portions of the cloned sequences encoding the LBDs were amplified from the full-length clones by PCR and then subcloned into the plasmid vectors. Final clones were verified by DNA sequence analysis.
(§2) Baby hamster kidney cells (BHK21 ATCC CCL10) were grown in DMEM medium containing 10% FBS at 37° C. in a […]:5% CO2 atmosphere. Cells were seeded in 6 well plates at a density of 10^5 cells/well and then batch-transfected with either the pFA-PPARδ-LBD, pFA-PPARγ-LBD or pFA-PPARα-LBD expression plasmids plus a reporter plasmid (to monitor transfection efficiency). […] Six hours following transfection, the cells were harvested by trypsinization and seeded in 96 well plates at a density of 10^4 cells/well. After 24 hours the medium was removed and replaced with 100 ul of phenol red-free medium containing the corresponding test compounds or control ligands (at a final DMSO concentration of 0.1%). Following incubation of the cells for 24 hours with compounds, 50 μl of the supernatant was discarded and then 50 μl of Luciferase Constant—Light Reagent (Roche Molecular Biochemicals) was added to lyse the cells and initiate the luciferase reaction. Luminescence for luciferase was measured in a Packard TopCount. Transcriptional activation in the presence of a test substance was expressed as fold-activation over cells incubated in the absence of the substance. The signals were normalized against plate-specific controls (DMSO alone) and the fold-stimulation of luciferase activity observed with specific and selective PPARα((2(S)-2-(2-benzoyl-phenylamino)-3-{4-[2-(5-methyl-2-phenyl-oxazol-4-yl)-ethoxy]-phenyl}-propionic acid), PPARγ (Rosiglitazone) and PPARδ ({2-methyl-4-[4-methyl-2-(4-trifluoromethyl-phenyl)-thiazol-5-ylmethylsulfanyl]-phenoxy}-acetic acid) reference compounds was set to 100%. EC50 values were calculated using the XLfit program (ID Business Solutions Ltd. UK).

Experiment [2] concerns the target T2, GST-PPARα-LBD fusion protein (Homo sapiens, UniProt Q07869).
T2 construct: PPARα (aa 167 to 469); made in house; host or cells: E. coli BL21(pLysS)
T2 sequence (Q07869 167-468 limits assumed): T1 sequence (Q07869 167-468 limits assumed)
Nature of the experiment: PPARα radioligand binding assay (SPA).
Excerpt: as §1
(§3) Induction, expression, and purification of GST-LBD fusion proteins were performed in E. coli strain BL21(pLysS) cells by standard methods (Ref: Current Protocols in Molecular Biology, Wiley Press, edited by Ausubel et al.).
PPARαreceptor binding was assayed in TKE50 (50 mM Tris-HCl, pH 8, 50 mM KCl, 2 mM EDTA, 0.1 mg/ml fatty acid-free BSA and 10 mM DTT). […] All binding assays were performed in 96 well plates and the amount of bound ligand measured on a Packard TopCount using OptiPlates (Packard). Nonspecific binding was determined in the presence of 10^−4 M unlabelled compound. […]

Experiment [3] deals with T3, GST-PPARγ-LBD fusion protein (Mus musculus, UniProt P37238).
T3 construct: PPARγ (aa 174 to 476); made in house; host or cells: E. coli BL21(pLysS)
T3 sequence (P37238 204-505): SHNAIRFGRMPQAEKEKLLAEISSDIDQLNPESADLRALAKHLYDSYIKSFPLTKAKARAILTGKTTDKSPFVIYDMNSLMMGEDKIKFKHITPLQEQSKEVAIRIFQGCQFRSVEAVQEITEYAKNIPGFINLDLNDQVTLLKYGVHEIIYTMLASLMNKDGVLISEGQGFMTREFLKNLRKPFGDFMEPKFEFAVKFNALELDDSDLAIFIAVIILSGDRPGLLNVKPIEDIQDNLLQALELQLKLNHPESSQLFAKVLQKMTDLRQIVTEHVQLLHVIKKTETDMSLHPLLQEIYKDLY
Put plainly: PPARγ radioligand binding assay (SPA).
Excerpt: as §1, §3
PPARγ receptor binding was assayed in TKE50 (50 mM Tris-HCl, pH 8, 50 mM KCl, 2 mM EDTA, 0.1 mg/ml fatty acid-free BSA and 10 mM DTT). […] All binding assays were performed in 96 well plates and the amount of bound ligand measured on a Packard TopCount using OptiPlates (Packard). Nonspecific binding was determined in the presence of 10^−4 M unlabelled compound. […]

Experiment [4] addresses T4, pFA-PPARδ-LBD in BHK21 cells (Homo sapiens, UniProt Q03181).
T4 construct: PPARδ (aa 139 to 442); expressed in transfected cells; host or cells: BHK21 (ATCC CCL10)
T4 sequence (Q03181 139-441 limits assumed): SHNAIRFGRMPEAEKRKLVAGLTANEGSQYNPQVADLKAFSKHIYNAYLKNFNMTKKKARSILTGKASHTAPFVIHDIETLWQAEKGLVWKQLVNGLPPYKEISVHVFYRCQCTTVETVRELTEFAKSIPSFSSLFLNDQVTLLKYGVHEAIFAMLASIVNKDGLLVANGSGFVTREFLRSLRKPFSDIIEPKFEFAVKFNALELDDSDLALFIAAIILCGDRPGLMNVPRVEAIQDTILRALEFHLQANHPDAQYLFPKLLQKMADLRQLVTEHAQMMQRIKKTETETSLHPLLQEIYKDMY
Nature of the experiment: Luciferase transcriptional reporter gene assay (transactivation), PPARδ. The conditions noted are these: for pEC50: 24 hours with compound; for PPARδ efficacy relative to reference compound: reference PPARδ compound set to 100%. It counts as cell-based.
Excerpt: as §1, §2

Experiment [5] concerns the target T5, PPARδ receptor (GST-PPAR-LBD fusion protein) (Homo sapiens, UniProt Q03181).
T5 construct: PPARδ (aa 139 to 442); made in house; host or cells: E. coli BL21(pLysS)
T5 sequence (Q03181 139-441 limits assumed): T4 sequence (Q03181 139-441 limits assumed)
Put plainly: PPARδ radioligand binding assay (SPA).
Excerpt: as §1, §3
PPARδ receptor binding was assayed in HNM10 (50 mM Hepes, pH 7.4, 10 mM NaCl, 5 mM MgCl2, 0.15 mg/ml fatty acid-free BSA and 15 mM DTT). […] Radioligand was added and the reaction incubated at RT for 1 h and scintillation proximity counting performed in the presence of test compounds was determined. All binding assays were performed in 96 well plates and the amount of bound ligand was measured on a Packard TopCount using OptiPlates (Packard). […]

pEC50, pIC50: −log10 of the molar value.

As to `Cc1cc(OCc2cc(-c3ccc(OC(F)(F)F)cc3)nn2C)ccc1OC(C)(C)C(=O)O` [Example 1, 2-Methyl-2-{2-methyl-4-[2-methyl-5-(4-trifluoromethoxy-phenyl)-2H-pyrazol-3-ylmethoxy]-phenoxy}-propionic acid], the pEC50 (usually the EC50 on a negative log10 scale, so that one unit is a factor of ten) was 6.42 in experiment [1] and 6.70 in experiment [4]. In addition, the “PPARα maximal activation (% of reference compound)” value in experiment [1] came out at 100%. The pIC50 (as a rule, the IC50 on a negative log10 scale, so that one unit is a factor of ten) in experiment [2] was 6.78; in experiment [3] it was at most 5.00; in experiment [5] it was 6.84. Besides, in experiment [4], the “PPARδ efficacy relative to reference compound” value is on record as 59%.
As to `Cc1cc(OCc2cc(-c3ccc(OC(F)(F)F)cc3)nn2CC(F)(F)F)ccc1OC(C)(C)C(=O)O` [Example 6, 2-Methyl-2-{2-methyl-4-[2-(2,2,2-trifluoro-ethyl)-5-(4-trifluoromethoxy-phenyl)-2H-pyrazol-3-ylmethoxy]-phenoxy}-propionic acid], the results for the pEC50 in experiment [1] and in experiment [4] were 6.80 and 7.02, respectively. In addition, the “PPARα maximal activation (% of reference compound)” value in experiment [1] was 120%. For the same compound, the pIC50 in experiment [2] was 6.67; in experiment [3], at most 5.00; in experiment [5] it was 6.65. For the same compound, the “PPARδ efficacy relative to reference compound” value in experiment [4] is 140%.

(Values after patent US20110237640A1, “PYRAZOLE PHENYL DERIVATIVES” (priority 2004, published 2011).)
